Laboratory results as given in patent US20140005164A1, “WNT PATHWAY ANTAGONISTS” (Siena Biotech S.p.A., priority 2011, published 2014).

Tested on: Wnt/β-catenin pathway
Assay: Wnt reporter assay (TCF-Luciferase, Firefly) in DBTRG-05MG cells
Format: cell-based
Details: Homo sapiens, 24 h, read-out: IC50 value in the reporter assay
Protocol: Three copies of a 4×TCF responsive elements were cloned into the pcDNA3.1/Zeo(+) vector (Invitrogen) after deletion of the constitutive CMV promoter and the insertion of the Firefly Luciferase from Promega (phFL-TK) to measure the activity of the Wnt/β-catenin pathway. The resulting plasmid was sequenced for quality control.
Cells were grown in 20 μg/ml Zeocin and 20 μg/ml Zeocin plus 30 μg/ml Hygromicin respectively. The cells were plated at a density of 6500 cells/well in poly-D-lysine pre-treated 96 well-plates.
36 hours after plating cells were incubated with 8-points dilutions compound (0.6% DMSO (v/v)). Each compound was tested in triplicate in single plate. Luciferase detection was done with Dual-Luciferase Reporter Assay System (Promega). 24 hours after compound addition, media was removed and 30 μl of 1× lysis buffer was added to each well for 30 minutes. To each well 45 μl of Dual-Glo Luciferase reagent (Promega) were added and after 1 second delay Luciferase was detected for 1 second using Mithras LB940 instrument. After Firefly luciferase quantification 45 μl of Dual Stop & Glo reagent (Promega) were added to each well and […] Renilla was detected using the same parameters described before.
Data were expressed as % of control for Firefly and Renilla luciferase independently; values were calculated using XLFit version 4.2, with a four parameters sigmoid function (XLFit model 205).

Compound	IC50 [nM]
COc1cccc(COc2ccc3c(n2)n(C[C@H]2CC[C@H](C(=O)Nc4ccncc4)CC2)c(=O)n3C)c1 [Example 10, Trans-4-[5-(3-Methoxy-benzyloxy)-1-methyl-2-oxo-1,2-dihydro-imidazo[4,5-b]pyridin-3-ylmethyl]-cyclohexane carboxylic acid pyridin-4-ylamide]	35 to 23000

Same assay, conditions: Homo sapiens, TCF-Luciferase (Firefly) read out, 24 hours after compound addition, range given with mixed units nM and μM, read-out: IC50 value in the reporter assay

IC50 [nM]	Compound
35 to 23000	Cn1c(=O)n(C[C@H]2CC[C@H](C(=O)N3CCN(c4ncccn4)CC3)CC2)c2cc(C(F)(F)F)ccc21 [Example 25]
35 to 23000	COc1ccc2c(c1)n(C[C@H]1CC[C@H](C(=O)N3CCN(c4nccs4)CC3)CC1)c(=O)n2C [Example 27]
35 to 23000	COc1ccc2c(c1)n(C[C@H]1CC[C@H](C(=O)N3CCN(C(=O)[C@@H]4CCC(=O)O4)CC3)CC1)c(=O)n2C [Example 74]
35 to 23000	COc1ccc2c(c1)n(C[C@H]1CC[C@H](c3nnc(-c4cnc(C)cn4)o3)CC1)c(=O)n2C [Example 128]
35 to 23000	Cn1c(=O)n(C[C@H]2CC[C@H](c3nnc(-c4cccnc4)o3)CC2)c2cc(C#N)ccc21 [Example 124]
35 to 23000	COCCN(C)c1ccc2c(n1)n(C[C@H]1CC[C@H](C(=O)Nc3ccncc3)CC1)c(=O)n2C [Example 108]
35 to 23000	Cn1cc(-c2nnc([C@H]3CC[C@H](Cn4c(=O)n(C)c5ccc(C#N)cc54)CC3)o2)cn1 [Example 162]
35 to 23000	COc1ccc2c(c1)n(C[C@H]1CC[C@H](C(=O)Nc3ccn(C)n3)CC1)c(=O)n2C [Example 133]
35 to 23000	Cn1cc(C2=CCN(C(=O)[C@H]3CC[C@H](Cn4c(=O)n(C)c5ccc(C#N)cc54)CC3)CC2)cn1 [Example 154]
35 to 23000	CC(=O)N1CCN(C(=O)[C@H]2CC[C@H](Cn3c(=O)n(C)c4ccc(CCCC#N)nc43)CC2)CC1 [Example 101]
35 to 23000	COCCOc1cc2c(cc1F)n(C)c(=O)n2C[C@H]1CC[C@H](C(=O)Nc2ccnnc2)CC1 [Example 176]
35 to 23000	COCCOc1cc(NC(=O)[C@H]2CC[C@H](Cn3c(=O)n(C)c4c(Cl)cccc43)CC2)ccn1 [Example 42]
35 to 23000	COc1ccc2c(c1)n(C[C@H]1CC[C@H](C(=O)N3CCN(c4ccc(C)nc4)CC3)CC1)c(=O)n2C [Example 93]
35 to 23000	COCCOc1ccc2c(c1)n(C[C@H]1CC[C@H](c3nnc(-c4cccnc4)o3)CC1)c(=O)n2C [Example 146]
35 to 23000	COc1ccc2c(c1)n(C[C@H]1CC[C@H](C(=O)N3CCNC(=O)C3)CC1)c(=O)n2C [Example 105]
35 to 23000	COc1ccc2c(c1)n(C[C@H]1CC[C@H](C(=O)N3CCN(c4ccnc(F)c4)CC3)CC1)c(=O)n2C [Example 79]
35 to 23000	Cn1c(=O)n(C[C@H]2CC[C@H](C(=O)N3CCN(c4nccs4)CC3)CC2)c2c(Cl)cccc21 [Example 23]
35 to 23000	COc1ccc2c(c1)n(C[C@H]1CC[C@H](C(=O)N3CCN(c4cnn(C)c4)CC3)CC1)c(=O)n2C [Example 141]
35 to 23000	COc1ccc2c(c1)n(C[C@H]1CC[C@H](C(=O)N3CCN(c4cncnc4)CC3)CC1)c(=O)n2C [Example 20, 5-Methoxy-1-methyl-3-[trans-4-(4-pyrimidin-5-yl-piperazine-1-carbonyl)-cyclohexylmethyl]-1,3-dihydro-benzoimidazol-2-one]
35 to 23000	COc1ccc2c(c1)n(C[C@H]1CC[C@H](C(=O)Nc3cccnc3)CC1)c(=O)n2C [Example 37]
35 to 23000	CC(=O)N1CCN(C(=O)[C@H]2CC[C@H](Cn3c(=O)n(C)c4ccc(O)cc43)CC2)CC1 [Example 16, 3-[trans-4-(4-Acetyl-piperazine-1-carbonyl)-cyclohexylmethyl]-5-hydroxy-1-methyl-1,3-dihydro-benzoimidazol-2-one]
35 to 23000	Cn1c(=O)n(C[C@H]2CC[C@H](C(=O)Nc3ccncc3)CC2)c2nc(Br)ccc21 [Example 116]
35 to 23000	COc1ccc2c(c1)n(C[C@H]1CC[C@H](C(=O)N3CCC(c4noc(C)n4)CC3)CC1)c(=O)n2C [Example 84]
35 to 23000	COc1ccc2c(c1)n(C[C@H]1CC[C@H](C(=O)Nc3ccnnc3)CC1)c(=O)n2C [Example 100]
35 to 23000	COCCOc1ccc2c(c1)n(C[C@H]1CC[C@H](c3nnc(-c4cccnn4)o3)CC1)c(=O)n2C [Example 163]
35 to 23000	COc1ccc2c(c1)n(C[C@H]1CC[C@H](C(=O)N3CCN(c4cc(C)no4)CC3)CC1)c(=O)n2C [Example 144]
35 to 23000	COc1ccc2c(c1)n(C[C@H]1CC[C@H](C(=O)Nc3cncnc3)CC1)c(=O)n2C [Example 103]
35 to 23000	CCOc1ccc2c(c1)n(C[C@H]1CC[C@H](C(=O)Nc3ccncc3)CC1)c(=O)n2C [Example 17]

IC50 [nM]	Compound
35 to 23000	Cn1c(=O)n(C[C@H]2CC[C@H](C(=O)Nc3ccncc3)CC2)c2cc(OCCF)ccc21 [Example 137]
35 to 23000	Cn1c(=O)n(C[C@H]2CC[C@H](C(=O)N3CCN(c4nccs4)CC3)CC2)c2cc(Cl)ccc21 [Example 53]
35 to 23000	CC(=O)N1CCN(C(=O)[C@H]2CC[C@H](Cn3c(=O)n(C)c4ccc(Br)nc43)CC2)CC1 [Example 3, 3-[trans 4-(4-Acetyl-piperazine-1-carbonyl)cyclohexylmethyl]-5-bromo-1-methyl-1,3-dihydro-imidazo[4,5-b]pyridin-2-one]
35 to 23000	COCCOc1cc(NC(=O)[C@H]2CC[C@H](Cn3c(=O)n(C)c4ccc(OC)cc43)CC2)ccn1 [Example 36]
35 to 23000	COC/C=C/c1ccc2c(n1)n(C[C@H]1CC[C@H](C(=O)Nc3ccncc3)CC1)c(=O)n2C [Example 114]
35 to 23000	Cc1cc(NC(=O)[C@H]2CC[C@H](Cn3c(=O)n(C)c4cc(Cl)ccc43)CC2)ccn1 [Example 48]
35 to 23000	Cn1c(=O)n(C[C@H]2CC[C@H](C(=O)Nc3ccncc3)CC2)c2ncccc21 [Example 142]
35 to 23000	COc1ccc2c(c1)n(C[C@H]1CC[C@H](c3cc(-c4ccncc4)n[nH]3)CC1)c(=O)n2C [Example 13, 5-Methoxy-1-methyl-3-[trans-4-(5-pyridin-4-yl-2H-pyrazol-3-yl)-cyclohexylmethyl]-1,3-dihydro-benzoimidazol-2-one]
35 to 23000	Cn1c(=O)n(C[C@H]2CC[C@H](C(=O)Nc3ccncc3)CC2)c2nc(OCCN3CCOCC3)ccc21 [Example 158]
35 to 23000	COCCNc1ccc2c(c1)n(C[C@H]1CC[C@H](C(=O)Nc3ccncc3)CC1)c(=O)n2C [Example 78]
35 to 23000	COCCOc1ccc2c(c1)n(C[C@H]1CC[C@H](C(=O)N3CCN(c4ccncc4)CC3)CC1)c(=O)n2C [Example 157]
35 to 23000	COC/C=C/c1ccc2c(n1)n(C[C@H]1CC[C@H](C(=O)N3CCN(C(C)=O)CC3)CC1)c(=O)n2C [Example 4, 3-[Trans-4-(4-Acetyl-piperazine-1-carbonyl)-cyclohexylmethyl]-5-((E)-3-methoxy-propenyl)-1-methyl-1,3-dihydro-imidazo[4,5-b]pyridin-2-one]
35 to 23000	COc1ccc2c(c1)n(C[C@H]1CC[C@H](c3nnc(-c4ccncn4)o3)CC1)c(=O)n2C [Example 117]
35 to 23000	COc1ccc2c(c1)n(C[C@H]1CC[C@H](c3nnc(-c4ccc(C)nc4)o3)CC1)c(=O)n2C [Example 98]
35 to 23000	COc1ccc2c(c1)n(C[C@H]1CC[C@H](C(=O)N3CCSCC3)CC1)c(=O)n2C [Example 62]
35 to 23000	COc1ccc2c(c1)n(C[C@H]1CC[C@H](c3nnc(-c4csc(C)n4)o3)CC1)c(=O)n2C [Example 99]
35 to 23000	COCCN(C)c1ncccc1NC(=O)[C@H]1CC[C@H](Cn2c(=O)n(C)c3ccc(OC)cc32)CC1 [Example 45]
35 to 23000	Cn1c(=O)n(C[C@H]2CC[C@H](C(=O)N3CCN(c4ncccn4)CC3)CC2)c2ccc(Cl)cc21 [Example 55]
35 to 23000	Cn1c(=O)n(C[C@H]2CC[C@H](C(=O)Nc3ccncc3)CC2)c2cc(OCCC=C(F)F)ccc21 [Example 138]
35 to 23000	COc1ccc2c(c1)n(C[C@H]1CC[C@H](C(=O)N3CCN(c4cccc(C(F)(F)F)n4)CC3)CC1)c(=O)n2C [Example 87]
35 to 23000	COCC#Cc1ccc2c(n1)n(C[C@H]1CC[C@H](C(=O)N3CCN(C(C)=O)CC3)CC1)c(=O)n2C [Example 102]
35 to 23000	COc1cc2c(cc1F)n(C)c(=O)n2C[C@H]1CC[C@H](c2nnc(-c3cccnc3)o2)CC1 [Example 175]
35 to 23000	Cn1c(=O)n(C[C@H]2CC[C@H](C(=O)Nc3ccncc3)CC2)c2cc(OCc3ccncc3)ccc21 [Example 151]
35 to 23000	COc1ccc2c(c1)n(C[C@H]1CC[C@H](C(=O)N3CCN(C(=O)[C@H]4CCC(=O)O4)CC3)CC1)c(=O)n2C [Example 75]
35 to 23000	COc1ccc2c(c1)n(C[C@H]1CC[C@H](C(=O)N3CC4CCC(C3)O4)CC1)c(=O)n2C [Example 63]
35 to 23000	COCCOc1cc(NC(=O)[C@H]2CC[C@H](Cn3c(=O)n(C)c4ccc(Cl)cc43)CC2)ccn1 [Example 40]
35 to 23000	COc1ccc2c(c1)n(C[C@H]1CC[C@H](C(=O)N3CCN(c4ncccn4)CC3)CC1)c(=O)n2C [Example 2, 5-Methoxy-1-methyl-3-[trans-4-(4-pyrimidin-2-yl-piperazine-1-carbonyl)-cyclohexylmethyl]-1,3-dihydro-benzoimidazol-2-one]
